Our source for the EC50 values is patent US11078216B2, “Bisaryl amides as NRF2 activators” (GLAXOSMITHKLINE INTELLECTUAL PROPERTY DEVELOPMENT LIMITED, priority 2016, dated 2021).

The assay has as its system NRF2 (NQO1 activity as marker for NRF2 activation), BEAS-2B cells. Put plainly: BEAS-2B NQO1 MTT Assay. The class given is cell-based. Particulars: Homo sapiens, EC50 of NQO1 specific activity induction, 48 hours incubation, read-out: EC50. From the text: NAD(P)H:quinone oxidoreductase 1 (NQO1), also called DT diaphorase, is a homodimeric FAD-containing enzyme that catalyzes obligatory NAD(P)H-dependent two-electron reductions of quinones and protects cells against the toxic and neoplastic effects of free radicals and reactive oxygen species arising from one-electron reductions. The transcription of NQO1 is finely regulated by NRF2, and thus NQO1 activity is a good marker for NRF2 activation. On day one, frozen BEAS-2B cells (ATCC) are thawed in a water bath, counted, and re-suspended at a concentration of 250,000 cells/mL. Fifty microliters of cells are plated in 384 well black clear-bottomed plates. Plates are incubated at 37° C., 5% CO2 overnight. On day two, plates are centrifuged and 50 nL of compound or controls are added to the cells. Plates are then incubated at 37° C., 5% CO2 for 48 hours. On day four, medium is aspirated from the plate and crude cell lysates are made by adding 13 uL of 1× Cell Signaling Technologies lysis buffer with 1 Complete, Mini, EDTA-free Protease Inhibitor Tablet (Roche) for each 10 mL of lysis buffer. After lysis plates are incubated for 20 minutes at room temperature. Two microliters of lysate are removed for use in Cell Titer Glo assay (Promega) and MTT cocktail is prepared (Prochaska et. al. 1998) for measurement of NQO1 activity. Fifty microliters of MTT cocktail is added to each well, plate is centrifuged, and analyzed on an Envision plate reader (Perkin Elmer) using Absorbance 570 nm label for 30 minutes. Product formation is measured kinetically and the EC50 of NQO1 specific activity induction is calculated by plotting the change in absorbance (Delta OD/min) versus the log of compound concentration followed by 3-parameter fitting.
EC50s<1 nM (+++++), EC50s 1 nM-10 nM (++++), EC50s 10 nM-100 nM (+++), EC50s 100 nM-1 uM (++), EC50s 1-10 uM (+), EC50s>10 uM (−), or were not determined (ND).

Each structure is given as a SMILES string.

Consider `CC[C@@H]1CN(Cc2cc([C@H](CC(=O)NC(C)(C)C(N)=O)c3ccc4c(nnn4CC)c3C)ccc2C)S(=O)(=O)c2cccnc2O1` [Example 23, (S)-N-(1-Amino-2-methyl-1-oxopropan-2-yl)-3-(3-(((R)-4-ethyl-1,1-dioxido-3,4-dihydro-2H-pyrido[2,3-b][1,4,5]oxathiazepin-2-yl)methyl)-4-methylphenyl)-3-(1-ethyl-4-methyl-1H-benzo[d][1,2,3]triazol-5-yl)propanamide], for which the half-maximal effective concentration (EC50) (as a rule, the concentration needed to bring the measured effect to its halfway point) was 1000 to 10000 nM.

For `CC[C@@H]1CN(Cc2cc([C@H](CC(=O)NC3CN(C)C3)c3ccc4c(nnn4CC)c3C)ccc2C)S(=O)(=O)c2cccnc2O1` [Example 24, (S)-3-(3-(((R)-4-Ethyl-1,1-dioxido-3,4-dihydro-2H-pyrido[2,3-b][1,4,5]oxathiazepin-2-yl)methyl)-4-methylphenyl)-3-(1-ethyl-4-methyl-1H-benzo[d][1,2,3]triazol-5-yl)-N-(1-methylazetidin-3-yl)propanamide], the EC50 lay in the range of 1000 to 10000 nM.

Regarding `CC[C@@H]1CN(Cc2cc([C@H](CC(=O)NC3CCCOC3)c3ccc4c(nnn4CC)c3C)ccc2C)S(=O)(=O)c2cccnc2O1` (stereo partly drawn) [Example 25, (3S)-3-(3-(((R)-4-Ethyl-1,1-dioxido-3,4-dihydro-2H-pyrido[2,3-b][1,4,5]oxathiazepin-2-yl)methyl)-4-methylphenyl)-3-(1-ethyl-4-methyl-1H-benzo[d][1,2,3]triazol-5-yl)-N-(tetrahydro-2H-pyran-3-yl)propanamide], the EC50 is 100 to 1000 nM.

For the molecule `CC[C@@H]1CN(Cc2cc([C@H](CC(=O)NCC3CCOC3)c3ccc4c(nnn4CC)c3C)ccc2C)S(=O)(=O)c2cccnc2O1` (stereo partly drawn) [Example 26, (3S)-3-(3-(((R)-4-Ethyl-1,1-dioxido-3,4-dihydro-2H-pyrido[2,3-b][1,4,5]oxathiazepin-2-yl)methyl)-4-methylphenyl)-3-(1-ethyl-4-methyl-1H-benzo[d][1,2,3]triazol-5-yl)-N-((tetrahydrofuran-3-yl)methyl)propanamide], the half-maximal effective concentration (EC50) is 100 to 1000 nM.

In the case of `CC[C@@H]1CN(Cc2cc([C@H](CC(=O)NCC(C)(C)O)c3ccc4c(nnn4CC)c3C)ccc2C)S(=O)(=O)c2cccnc2O1` [Example 27, (S)-3-(3-(((R)-4-Ethyl-1,1-dioxido-3,4-dihydro-2H-pyrido[2,3-b][1,4,5]oxathiazepin-2-yl)methyl)-4-methylphenyl)-3-(1-ethyl-4-methyl-1H-benzo[d][1,2,3]triazol-5-yl)-N-(2-hydroxy-2-methylpropyl)propanamide], the EC50 lay in the range of 1000 to 10000 nM.

With `CC[C@@H]1CN(Cc2cc([C@H](CC(=O)NC(C)C(=O)NC)c3ccc4c(nnn4CC)c3C)ccc2C)S(=O)(=O)c2cccnc2O1` (stereo partly drawn) [Example 28, (3S)-3-(3-(((R)-4-Ethyl-1,1-dioxido-3,4-dihydro-2H-pyrido[2,3-b][1,4,5]oxathiazepin-2-yl)methyl)-4-methylphenyl)-3-(1-ethyl-4-methyl-1H-benzo[d][1,2,3]triazol-5-yl)-N-(1-(methylamino)-1-oxopropan-2-yl)propanamide], the EC50 was 1000 to 10000 nM.

Consider `CC[C@@H]1CN(Cc2cc([C@H](CC(=O)NC3CCCNC3=O)c3ccc4c(nnn4CC)c3C)ccc2C)S(=O)(=O)c2cccnc2O1` (stereo partly drawn) [Example 29, (3S)-3-(3-(((R)-4-Ethyl-1,1-dioxido-3,4-dihydro-2H-pyrido[2,3-b][1,4,5]oxathiazepin-2-yl)methyl)-4-methylphenyl)-3-(1-ethyl-4-methyl-1H-benzo[d][1,2,3]triazol-5-yl)-N-(2-oxopiperidin-3-yl)propanamide], for which the EC50 lay in the range of 1000 to 10000 nM.

With `CC[C@@H]1CN(Cc2cc([C@H](CC(=O)NCCS(N)(=O)=O)c3ccc4c(nnn4CC)c3C)ccc2C)S(=O)(=O)c2cccnc2O1` [Example 30, (S)-3-(3-(((R)-4-Ethyl-1,1-dioxido-3,4-dihydro-2H-pyrido[2,3-b][1,4,5]oxathiazepin-2-yl)methyl)-4-methylphenyl)-3-(1-ethyl-4-methyl-1H-benzo[d][1,2,3]triazol-5-yl)-N-(2-sulfamoylethyl)propanamide], the EC50 fell in the range of 100 to 1000 nM.

With `CC[C@@H]1CN(Cc2cc([C@H](CC(=O)NC3CC3)c3ccc4c(nnn4CC)c3C)ccc2C)S(=O)(=O)c2cccnc2O1` [Example 31, (S)—N-Cyclopropyl-3-(3-(((R)-4-ethyl-1,1-dioxido-3,4-dihydro-2H-pyrido[2,3-b][1,4,5]oxathiazepin-2-yl)methyl)-4-methylphenyl)-3-(1-ethyl-4-methyl-1H-benzo[d][1,2,3]triazol-5-yl)propanamide], the EC50 fell in the range of 100 to 1000 nM.

With `CC[C@@H]1CN(Cc2cc([C@H](CC(=O)NCCO)c3ccc4c(nnn4CC)c3C)ccc2C)S(=O)(=O)c2cccnc2O1` [Example 32, (S)-3-(3-(((R)-4-Ethyl-1,1-dioxido-3,4-dihydro-2H-pyrido[2,3-b][1,4,5]oxathiazepin-2-yl)methyl)-4-methylphenyl)-3-(1-ethyl-4-methyl-1H-benzo[d][1,2,3]triazol-5-yl)-N-(2-hydroxyethyl)propanamide], the EC50 was 1000 to 10000 nM.

Consider `CC[C@@H]1CN(Cc2cc([C@H](CC(=O)NCCCO)c3ccc4c(nnn4CC)c3C)ccc2C)S(=O)(=O)c2cccnc2O1` [Example 33, (S)-3-(3-(((R)-4-Ethyl-1,1-dioxido-3,4-dihydro-2H-pyrido[2,3-b][1,4,5]oxathiazepin-2-yl)methyl)-4-methylphenyl)-3-(1-ethyl-4-methyl-1H-benzo[d][1,2,3]triazol-5-yl)-N-(3-hydroxypropyl)-propanamide], for which the EC50 was in the range of 1000 to 10000 nM.

For the molecule `CC[C@@H]1CN(Cc2cc([C@H](CC(=O)NCCCOC)c3ccc4c(nnn4CC)c3C)ccc2C)S(=O)(=O)c2cccnc2O1` [Example 34, (S)-3-(3-(((R)-4-Ethyl-1,1-dioxido-3,4-dihydro-2H-pyrido[2,3-b][1,4,5]oxathiazepin-2-yl)methyl)-4-methylphenyl)-3-(1-ethyl-4-methyl-1H-benzo[d][1,2,3]triazol-5-yl)-N-(3-methoxypropyl)-propanamide], the EC50 was in the range of 1000 to 10000 nM.

For the molecule `CC[C@@H]1CN(Cc2cc([C@H](CC(=O)NCC(N)=O)c3ccc4c(nnn4CC)c3C)ccc2C)S(=O)(=O)c2cccnc2O1` [Example 35, (S)—N-(2-Amino-2-oxoethyl)-3-(3-(((R)-4-ethyl-1,1-dioxido-3,4-dihydro-2H-pyrido[2,3-b][1,4,5]oxathiazepin-2-yl)methyl)-4-methylphenyl)-3-(1-ethyl-4-methyl-1H-benzo[d][1,2,3]triazol-5-yl)propanamide], the EC50 was in the range of 1000 to 10000 nM.

As to `CC[C@@H]1CN(Cc2cc([C@H](CC(=O)NCCNC)c3ccc4c(nnn4CC)c3C)ccc2C)S(=O)(=O)c2cccnc2O1` [Example 36, (S)-3-(3-(((R)-4-Ethyl-1,1-dioxido-3,4-dihydro-2H-pyrido[2,3-b][1,4,5]oxathiazepin-2-yl)methyl)-4-methylphenyl)-3-(1-ethyl-4-methyl-1H-benzo[d]-[1,2,3]triazol-5-yl)-N-(2-(methylamino)ethyl)propanamide], the half-maximal effective concentration (EC50) lay in the range of 100 to 1000 nM.

In the case of `CC[C@@H]1CN(Cc2cc([C@H](CC(=O)NCC3CCCO3)c3ccc4c(nnn4CC)c3C)ccc2C)S(=O)(=O)c2cccnc2O1` (stereo partly drawn) [Example 37, (3S)-3-(3-(((R)-4-Ethyl-1,1-dioxido-3,4-dihydro-2H-pyrido[2,3-b][1,4,5]oxathiazepin-2-yl)methyl)-4-methylphenyl)-3-(1-ethyl-4-methyl-1H-benzo[d][1,2,3]triazol-5-yl)-N-((tetrahydrofuran-2-yl)methyl)propanamide], the EC50 was 100 to 1000 nM.

Take `CC[C@@H]1CN(Cc2cc([C@H](CC(=O)NCCF)c3ccc4c(nnn4CC)c3C)ccc2C)S(=O)(=O)c2cccnc2O1` [Example 38, (S)-3-(3-(((R)-4-Ethyl-1,1-dioxido-3,4-dihydro-2H-pyrido[2,3-b][1,4,5]oxathiazepin-2-yl)methyl)-4-methylphenyl)-3-(1-ethyl-4-methyl-1H-benzo[d][1,2,3]triazol-5-yl)-N-(2-fluoroethyl)propanamide]: the EC50 was in the range of 100 to 1000 nM.

As for `CC[C@@H]1CN(Cc2cc([C@H](CC(=O)NCC(=O)NC)c3ccc4c(nnn4CC)c3C)ccc2C)S(=O)(=O)c2cccnc2O1` [Example 39, (S)-3-(3-(((R)-4-Ethyl-1,1-dioxido-3,4-dihydro-2H-pyrido[2,3-b][1,4,5]oxathiazepin-2-yl)methyl)-4-methylphenyl)-3-(1-ethyl-4-methyl-1H-benzo[d][1,2,3]triazol-5-yl)-N-(2-(methylamino)-2-oxoethyl)propanamide], the EC50 lay in the range of 1000 to 10000 nM.

Turning to `CCOCCNC(=O)C[C@@H](c1ccc(C)c(CN2C[C@@H](CC)Oc3ncccc3S2(=O)=O)c1)c1ccc2c(nnn2CC)c1C` [Example 40, (S)-N-(2-Ethoxyethyl)-3-(3-(((R)-4-ethyl-1,1-dioxido-3,4-dihydro-2H-pyrido[2,3-b][1,4,5]oxathiazepin-2-yl)methyl)-4-methylphenyl)-3-(1-ethyl-4-methyl-1H-benzo[d][1,2,3]triazol-5-yl)propanamide], the EC50 was in the range of 100 to 1000 nM.
